Results taken from patent US8710065B2, “Tricyclic inhibitors of kinases” (AbbVie Inc., priority 2011, dated 2014).

Biological target: T1, GST-tagged-Wee1 kinase (Homo sapiens, UniProt P30291)
T1 construct: purchased Carnabio (Carna Biosciences) 05-177
Assay: Wee1 time-resolved fluorescence equilibrium binding assay (displacement of Oregon Green-labeled ATP-competitive kinase probe)
Conditions: read-out: Wee-1 inhibition (Ki)
How it was run: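 Ki values derive from competitive displacement, under equilibrium, of a fast-reversible ATP-site Oregon Green kinase probe from GST-tagged Wee1, detected by time-resolved fluorescence.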

T1 sequence (P30291 whole entry): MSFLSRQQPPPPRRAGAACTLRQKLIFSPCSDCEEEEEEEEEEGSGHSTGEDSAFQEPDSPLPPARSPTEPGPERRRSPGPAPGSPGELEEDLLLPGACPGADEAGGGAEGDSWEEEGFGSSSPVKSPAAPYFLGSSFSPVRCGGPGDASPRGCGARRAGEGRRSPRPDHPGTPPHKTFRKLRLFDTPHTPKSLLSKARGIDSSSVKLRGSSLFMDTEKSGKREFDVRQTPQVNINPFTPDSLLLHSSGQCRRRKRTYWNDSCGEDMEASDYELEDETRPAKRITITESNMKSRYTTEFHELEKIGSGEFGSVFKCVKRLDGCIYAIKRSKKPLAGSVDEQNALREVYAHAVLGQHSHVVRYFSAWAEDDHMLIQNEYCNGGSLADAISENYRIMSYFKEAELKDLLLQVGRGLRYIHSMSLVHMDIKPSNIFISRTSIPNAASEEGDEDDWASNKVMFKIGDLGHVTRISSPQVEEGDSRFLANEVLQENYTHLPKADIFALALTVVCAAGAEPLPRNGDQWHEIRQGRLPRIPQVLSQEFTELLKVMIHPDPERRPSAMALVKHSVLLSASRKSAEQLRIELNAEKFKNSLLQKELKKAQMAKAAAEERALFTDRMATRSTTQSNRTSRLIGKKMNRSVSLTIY

Ki, < 0.01 µM:
Cc1cc(Nc2ncc3c(=O)n(-c4c(F)cccc4Cl)c4nccn4c3n2)ccc1N1CCCNCC1 [Example 141, 6-(2-chloro-6-fluorophenyl)-2-{[4-(1,4-diazepan-1-yl)-3-methylphenyl]amino}imidazo[1,2-a]pyrimido[5,4-e]pyrimidin-5(6H)-one]
CC(C)NC(=O)N1Cc2cc(Nc3ncc4c(=O)n(-c5c(F)cccc5Cl)c5nccn5c4n3)ccc2C2(CC2)C1 [Example 301, 7′-{[6-(2-chloro-6-fluorophenyl)-5-oxo-5,6-dihydroimidazo[1,2-a]pyrimido[5,4-e]pyrimidin-2-yl]amino}-N-(propan-2-yl)-1′H-spiro[cyclopropane-1,4′-isoquinoline]-2′(3′H)-carboxamide]
O=c1c2cnc(Nc3ccc(C4CCNC4)cc3)nc2n2ccnc2n1-c1ccccc1Cl (centres unmarked) [Example 72, 6-(2-chlorophenyl)-2-{[4-(pyrrolidin-3-yl)phenyl]amino}imidazo[1,2-a]pyrimido[5,4-e]pyrimidin-5(6H)-one]
CC1(C)CN(CCCC(F)(F)F)Cc2cc(Nc3ncc4c(=O)n(-c5ccccc5Cl)c5nccn5c4n3)ccc21 [Example 145, 6-(2-chlorophenyl)-2-{[4,4-dimethyl-2-(4,4,4-trifluorobutyl)-1,2,3,4-tetrahydroisoquinolin-7-yl]amino}imidazo[1,2-a]pyrimido[5,4-e]pyrimidin-5(6H)-one]
CC(=O)N1CCN(c2ccc(Nc3ncc4c(=O)n(-c5c(Cl)cccc5Cl)c5nccn5c4n3)cc2)CC1 [Example 214, 2-{[4-(4-acetylpiperazin-1-yl)phenyl]amino}-6-(2,6-dichlorophenyl)imidazo[1,2-a]pyrimido[5,4-e]pyrimidin-5(6H)-one]
O=C1Nc2ccc(Nc3ncc4c(=O)n(-c5c(Cl)cccc5Cl)c5nccn5c4n3)cc2C[C@@H]2CNC[C@@H]12 [Example 179, (3aS,10aS)-8-{[6-(2,6-dichlorophenyl)-5-oxo-5,6-dihydroimidazo[1,2-a]pyrimido[5,4-e]pyrimidin-2-yl]amino}-2,3,3a,5,10,10a-hexahydropyrrolo[3,4-c][1]benzazepin-4(1H)-one]
CC(C)N1Cc2cc(Nc3ncc4c(=O)n(-c5ccccc5Cl)c5nccn5c4n3)ccc2C(C)(C)C1 [Example 144, 6-(2-chlorophenyl)-2-{[4,4-dimethyl-2-(propan-2-yl)-1,2,3,4-tetrahydroisoquinolin-7-yl]amino}imidazo[1,2-a]pyrimido[5,4-e]pyrimidin-5(6H)-one]
O=c1c2cnc(Nc3ccc(C4CCCCN4)cc3)nc2n2ccnc2n1-c1c(Cl)cccc1Cl (centres unmarked) [Example 135, 6-(2,6-dichlorophenyl)-2-{[4-(piperidin-2-yl)phenyl]amino}imidazo[1,2-a]pyrimido[5,4-e]pyrimidin-5(6H)-one]
Cc1cc(O)ccc1-n1c(=O)c2cnc(Nc3ccc4c(c3)CNCC43CC3)nc2n2ccnc12 [Example 279, 2-(2′,3′-dihydro-1′H-spiro[cyclopropane-1,4′-isoquinolin]-7′-ylamino)-6-(4-hydroxy-2-methylphenyl)imidazo[1,2-a]pyrimido[5,4-e]pyrimidin-5(6H)-one]
O=c1c2cnc(Nc3ccc(N4CCC(N5CCCCC5)CC4)cc3)nc2n2ccnc2n1-c1c(Cl)cccc1Cl [Example 282, 2-{[4-(1,4′-bipiperidin-1′-yl)phenyl]amino}-6-(2,6-dichlorophenyl)imidazo[1,2-a]pyrimido[5,4-e]pyrimidin-5(6H)-one]
O=c1c2cnc(Nc3ccc4[nH]ncc4c3)nc2n2ccnc2n1-c1c(Cl)cccc1Cl [Example 194, 6-(2,6-dichlorophenyl)-2-(1H-indazol-5-ylamino)imidazo[1,2-a]pyrimido[5,4-e]pyrimidin-5(6H)-one]
CC(=O)N1CCC(Nc2ccc(Nc3ncc4c(=O)n(-c5c(Cl)cccc5Cl)c5nccn5c4n3)cc2)CC1 [Example 321, 2-({4-[(1-acetylpiperidin-4-yl)amino]phenyl}amino)-6-(2,6-dichlorophenyl)imidazo[1,2-a]pyrimido[5,4-e]pyrimidin-5(6H)-one]
CN1Cc2cc(Nc3ncc4c(=O)n(-c5c(Cl)cc(F)cc5Cl)c5nccn5c4n3)ccc2C(C)(C)C1 [Example 212, 6-(2,6-dichloro-4-fluorophenyl)-2-[(2,4,4-trimethyl-1,2,3,4-tetrahydroisoquinolin-7-yl)amino]imidazo[1,2-a]pyrimido[5,4-e]pyrimidin-5(6H)-one]
O=c1c2cnc(Nc3ccc(N4CC5(CNC5)C4)cc3)nc2n2ccnc2n1-c1c(Cl)cccc1Cl [Example 304, 2-{[4-(2,6-diazaspiro[3.3]hept-2-yl)phenyl]amino}-6-(2,6-dichlorophenyl)imidazo[1,2-a]pyrimido[5,4-e]pyrimidin-5(6H)-one]
CN1Cc2cc(Nc3ncc4c(=S)n(-c5ccccc5Cl)c5nccn5c4n3)ccc2C(C)(C)C1 [Example 334, 6-(2-chlorophenyl)-2-[(2,4,4-trimethyl-1,2,3,4-tetrahydroisoquinolin-7-yl)amino]imidazo[1,2-a]pyrimido[5,4-e]pyrimidine-5(6H)-thione]
O=c1c2cnc(Nc3ccc4c(c3)CNCC43CC3)nc2n2ccnc2n1-c1c(F)cccc1Cl [Example 228, 6-(2-chloro-6-fluorophenyl)-2-(2′,3′-dihydro-1′H-spiro[cyclopropane-1,4′-isoquinolin]-7′-ylamino)imidazo[1,2-a]pyrimido[5,4-e]pyrimidin-5(6H)-one]
CC(=O)N1Cc2cc(Nc3ncc4c(=O)n(-c5c(F)cccc5Cl)c5nccn5c4n3)ccc2C(C)(C)C1 [Example 310, 2-[(2-acetyl-4,4-dimethyl-1,2,3,4-tetrahydroisoquinolin-7-yl)amino]-6-(2-chloro-6-fluorophenyl)imidazo[1,2-a]pyrimido[5,4-e]pyrimidin-5(6H)-one]
O=c1c2cnc(Nc3ccc4c(c3)CNCC43CC3)nc2n2ccnc2n1-c1c(Cl)cc(F)cc1Cl [Example 160, 6-(2,6-dichloro-4-fluorophenyl)-2-(2′,3′-dihydro-1′H-spiro[cyclopropane-1,4′-isoquinolin]-7′-ylamino)imidazo[1,2-a]pyrimido[5,4-e]pyrimidin-5(6H)-one]
CN(C)C1CCN(c2ccc(Nc3ncc4c(=O)n(-c5c(Cl)cccc5Cl)c5nccn5c4n3)cc2)CC1 [Example 215, 6-(2,6-dichlorophenyl)-2-({4-[4-(dimethylamino)piperidin-1-yl]phenyl}amino)imidazo[1,2-a]pyrimido[5,4-e]pyrimidin-5(6H)-one]
CN1CCN(CCOc2ccc(Nc3ncc4c(=O)n(-c5ccccc5Cl)c5nccn5c4n3)cc2F)CC1 [Example 51, 6-(2-chlorophenyl)-2-({3-fluoro-4-[2-(4-methylpiperazin-1-yl)ethoxy]phenyl}amino)imidazo[1,2-a]pyrimido[5,4-e]pyrimidin-5(6H)-one]
O=c1c2cnc(Nc3ccc(OC4CCNCC4)cc3)nc2n2ccnc2n1-c1ccccc1Cl [Example 290, 6-(2-chlorophenyl)-2-{[4-(piperidin-4-yloxy)phenyl]amino}imidazo[1,2-a]pyrimido[5,4-e]pyrimidin-5(6H)-one]
CC(C)N1CCN(c2ccc(Nc3ncc4c(=O)n(-c5c(Cl)cccc5Cl)c5nccn5c4n3)cc2F)CC1 [Example 155, 6-(2,6-dichlorophenyl)-2-({3-fluoro-4-[4-(propan-2-yl)piperazin-1-yl]phenyl}amino)imidazo[1,2-a]pyrimido[5,4-e]pyrimidin-5(6H)-one]
CN1C(C)(C)c2ccc(Nc3ncc4c(=O)n(-c5c(F)cccc5Cl)c5nccn5c4n3)cc2C1(C)C [Example 210, 6-(2-chloro-6-fluorophenyl)-2-[(1,1,2,3,3-pentamethyl-2,3-dihydro-1H-isoindol-5-yl)amino]imidazo[1,2-a]pyrimido[5,4-e]pyrimidin-5(6H)-one]
CN(C)CCNc1ccc(Nc2ncc3c(=O)n(-c4c(Cl)cccc4Cl)c4nccn4c3n2)cc1 [Example 284, 6-(2,6-dichlorophenyl)-2-[(4-{[2-(dimethylamino)ethyl]amino}phenyl)amino]imidazo[1,2-a]pyrimido[5,4-e]pyrimidin-5(6H)-one]
CS(=O)(=O)N1CCC2(CN(c3ccc(Nc4ncc5c(=O)n(-c6c(Cl)cccc6Cl)c6nccn6c5n4)cc3)C2)C1 [Example 324, 6-(2,6-dichlorophenyl)-2-({4-[6-(methylsulfonyl)-2,6-diazaspiro[3.4]oct-2-yl]phenyl}amino)imidazo[1,2-a]pyrimido[5,4-e]pyrimidin-5(6H)-one]

Ki, 0.01 to 0.1 µM:
CC1(C)CN(CC(F)F)Cc2cc(Nc3ncc4c(=O)n(-c5c(F)cccc5Cl)c5nccn5c4n3)ccc21 [Example 280, 6-(2-chloro-6-fluorophenyl)-2-{[2-(2,2-difluoroethyl)-4,4-dimethyl-1,2,3,4-tetrahydroisoquinolin-7-yl]amino}imidazo[1,2-a]pyrimido[5,4-e]pyrimidin-5(6H)-one]
O=c1c2cnc(Nc3cc(Cl)c(N4CCNCC4)c(Cl)c3)nc2n2ccnc2n1-c1ccccc1Cl [Example 217, 6-(2-chlorophenyl)-2-{[3,5-dichloro-4-(piperazin-1-yl)phenyl]amino}imidazo[1,2-a]pyrimido[5,4-e]pyrimidin-5(6H)-one]
CC1(C)CNCc2cc(Nc3ncc4c(=O)n(-c5c(F)cccc5Cl)c5nccn5c4n3)ccc21 [Example 159, 6-(2-chloro-6-fluorophenyl)-2-[(4,4-dimethyl-1,2,3,4-tetrahydroisoquinolin-7-yl)amino]imidazo[1,2-a]pyrimido[5,4-e]pyrimidin-5(6H)-one]
O=c1c2cnc(Nc3ccc(-c4cccnc4)cc3)nc2n2ccnc2n1-c1ccccc1Cl [Example 45, 6-(2-chlorophenyl)-2-{[4-(pyridin-3-yl)phenyl]amino}imidazo[1,2-a]pyrimido[5,4-e]pyrimidin-5(6H)-one]
